According to patent US10799457B2, “Exosomal compositions and methods for the treatment of disease” (priority 2010, dated 2020):

What was measured:
[1] = tested on: Gr1^+ cells; assay: Gr1+ cell apoptosis, Annexin V FACS analysis; format: cell-based, Mouse; details: 5 μM and 10 μM, 8 hours, Annexin V-FITC FACS
Description: For cell surface marker staining, isolated cells were blocked at 4° C. for 5 min with 10 μg/ml mouse Fc block (BD Biosciences, San Jose, Calif.) and then reacted with various fluorochrome-labeled antibodies including appropriate isotype controls for 30 min at 4° C. After washing twice, cells were fixed and analyzed using a FACSCalibur flow cytometer (Becton Dickinson Biosciences, San Jose, Calif.). Data were analyzed using FlowJo software (Tree Star, Inc., Ashland, Oreg.). The following antibodies were used for immunostaining: FITC-Annexing V (Invitrogen, Carlsbad, Calif.), APC anti-mouse CD11b and PE anti-mouse Gr-1 (eBiosciences, San Diego, Calif.).
Mouse bone marrow cells were isolated as described previously (22). The isolated bone marrow cells were re-suspended to a concentration of 1×10^8 cells/ml using RPMI 1640 medium supplemented with 10% FBS. A Gr1-PE conjugated antibody (3 μg/ml), following a mouse FcR blocking specific antibody (5 μl/ml), was added, mixed thoroughly and incubated at 4° C. for 15 min. After centrifugation at 1500 rpm for 5 min, cells were re-suspended in fresh medium to a concentration of 1×10^8 cells/ml. EasySep® PE selection cocktail (25 μl/ml, StemCell Technologies, Vancouver, British Columbia) was added to the cells and incubated at 4° C. for 15 min. […]

[2] = tested on: C57BL/6 mice; assay: Experimental autoimmune encephalitis (EAE), MOG 35-55 induced; format: in vivo; details: intranasal daily from day 4, 1.5 nmoles; scale 0-5
Description: EAE was induced in six-week-old female C57BL/6 mice using a procedure described previously (67). Briefly, mice were primed subcutaneously in the flanks with 150 μg of Myelin Oligodendrocyte Glycoprotein (MOG) 35-55 peptide (Biosynthesis, Lewisville, Tex.) per animal. The peptide was emulsified in complete Freund's adjuvant (CFA) containing 1 mg/ml of Mycobacterium tuberculosis H37RA (Difco, Detroit, Mich.). Two days later the mice were injected IP with 500 ng of Pertussis toxin (Alexis Corp., San Diego, Calif.) in 100 μl of PBS. Mice (n=10) were treated intranasally with daily doses of 1.5 nmoles of Exo-cur, or with Cur- or Exo-controls in PBS or PBS-control for 26 consecutive days. […] The mice were scored as follows: 0, no detectable signs of EAE; 1, complete limp tail; 2, limp tail and hindlimb weakness; 3, severe hindlimb weakness; 4, complete bilateral hindlimb paralysis; 5, total paralysis of both forelimbs and hindlimbs or death.
Relative quantification of select mRNA was performed using a CFX96 Realtime System and SsoFast™ Evagreen® supermixture (Bio-Rad Laboratories, Hercules, Calif.) according to the manufacturer's instructions. […] Fold changes in mRNA expression between treatments and controls were determined the ΔCT method (91). Fluorescence threshold cycle (Ct) values were calculated using SDS 700 System Software (Bio-Rad Laboratories, Hercules, Calif.). […]

[3] = tested on: C57BL/6j mice; assay: LPS mouse septic shock model; format: in vivo; details: 16 hours after IP injection of LPS, 4 mg/kg IP
Description: Mouse mortality was monitored over a period of 4 days. The sera were collected 16 hr after LPS injection and used to determine IL-6 and TNF-α levels using ELISAs as before. At day 1 after LPS challenge, 3 mice from each treated group were sacrificed and the leukocytes in the lungs were isolated using a method described previously (21). The percentage of CD11b^+Gr-1^+ cells in the lung was determined by FACS analysis.
Briefly, to monitor mice mortality, a LD50 (median lethal dose) of LPS was determined first. LPS (5 mg/ml, Sigma, St. Louis, Mo.) was then prepared with sterile H2O and varied amounts of LPS were IP injected into the same batch of commercially supplied C57BL/6j mice. Each group contained 6 mice. […] Exosomes and PBS injections served as controls.

[4] = In vitro stability assay in PBS (pH 7.4) at 37° C.; format: physicochemical; details: 150 min
Description: The fold reduction of the concentration at each time was determined by comparison to the beginning value. The experiments were repeated three times for each time point (n=3).

SMILES: COc1cc(/C=C/C(=O)CC(=O)/C=C/c2ccc(O)c(OC)c2)ccc1O [curcumin]
- Gr1+ cell apoptosis [1]: induces Gr1^+ cell apoptosis
- EAE disease severity score [2]: 3.60±0.12
- sera level of IL-6 [3]: similar
- sera level of TNF-α [3]: similar
- curcumin remaining after incubation compared to the 0 min sample [4]: 25%
